Measurements: patent publication US20090247559A1 (Exelixis, Inc., priority 2007, published 2009)

Columns and labels:
[1] = target: CK2 (Homo sapiens, UniProt P68400); assay: CK2 inhibition, biochemical chemiluminescence holoenzyme assay (Kinase Glo, IC50 determination); details: Table 1 activity class; symbol given only if active; read-out: CK2 IC50 (Activity C)
Outline: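 Holoenzyme CK2 assay; compounds pre-incubated with substrate and enzyme, then reacted 150 min at 24-27° C. Remaining ATP measured as luminescence with Kinase Glo, and IC50 derived from the signal.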

[2] = target: PIM (PIM-1, PIM-2, and/or PIM-3); assay: PIM-1, PIM-2 and PIM-3 inhibition, biochemical chemiluminescence assays (Kinase Glo, IC50 determination); details: Table 1 activity class; PIM refers to PIM-1, PIM-2, and/or PIM-3; read-out: PIM IC50 (Activity B)

CK2, sequence (P68400 whole entry): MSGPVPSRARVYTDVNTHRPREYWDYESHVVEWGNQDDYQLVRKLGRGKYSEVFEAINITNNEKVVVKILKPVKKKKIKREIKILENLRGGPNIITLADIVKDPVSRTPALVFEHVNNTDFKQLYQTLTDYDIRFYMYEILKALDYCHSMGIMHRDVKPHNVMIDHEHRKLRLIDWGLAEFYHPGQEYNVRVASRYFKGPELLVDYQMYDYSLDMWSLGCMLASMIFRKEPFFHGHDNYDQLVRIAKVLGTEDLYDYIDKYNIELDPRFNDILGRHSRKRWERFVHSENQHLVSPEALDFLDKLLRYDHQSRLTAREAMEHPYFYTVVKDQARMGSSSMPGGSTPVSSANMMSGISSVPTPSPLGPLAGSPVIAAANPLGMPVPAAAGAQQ
CK2, sequence (P67870 whole entry partner): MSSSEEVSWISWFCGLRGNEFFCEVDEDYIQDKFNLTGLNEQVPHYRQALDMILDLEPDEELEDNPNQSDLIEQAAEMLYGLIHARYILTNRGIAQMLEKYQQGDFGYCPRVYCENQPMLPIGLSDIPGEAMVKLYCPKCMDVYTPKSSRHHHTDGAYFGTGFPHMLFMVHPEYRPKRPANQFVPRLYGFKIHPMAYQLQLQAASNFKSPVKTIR

IC50 [1] [µM] | IC50 [2] [µM] | Structure (SMILES)
< 10 | < 10 | Cc1ccccc1CNc1ccc2oc3c(=O)[nH]c(CN4CC[C@H](O)C4)nc3c2c1 [Compound 461, 2-{[(3S)-3-hydroxypyrrolidin-1-yl]methyl}-8-{[(2-methylphenyl)methyl]amino}[1]benzofuro[3,2-d]pyrimidin-4(3H)-one]
< 10 | < 10 | O=C(Nc1ccc(Cl)c(-c2nc3c(oc4ccc(Br)cc43)c(=O)[nH]2)c1)c1ccoc1 [Compound 342, N-[3-(8-bromo-4-oxo-3,4-dihydro[1]benzofuro[3,2-d]pyrimidin-2-yl)-4-chlorophenyl]furan-3-carboxamide]
< 10 | < 10 | CN(C)CCCC(=O)N1CCC(c2nc3c(oc4ccc(Br)cc43)c(=O)[nH]2)CC1 [Compound 207, 8-bromo-2-{1-[4-(dimethylamino)butanoyl]piperidin-4-yl}[1]benzofuro[3,2-d]pyrimidin-4(3H)-one]
< 10 | < 10 | O=c1[nH]c(-c2cc(OC3CCNCC3)no2)nc2c1oc1ccc(Br)cc12 [Compound 299, 8-Bromo-2-[3-(piperidin-4-yloxy)isoxazol-5-yl][1]benzofuro[3,2-d]pyrimidin-4(3H)-one]
< 10 | < 10 | COCCC(=O)N1CCC(c2nc3c(oc4ccc(Br)cc43)c(=O)[nH]2)CC1 [Compound 209, 8-bromo-2-{1-[3-(methyloxy)propanoyl]piperidin-4-yl}[1]benzofuro[3,2-d]pyrimidin-4(3H)-one]
< 10 | < 10 | O=c1[nH]c(CN2CC[C@H](O)C2)nc2c1oc1ccc(C#CCCCCO)cc12 [Compound 456, 8-(6-hydroxyhex-1-yn-1-yl)-2-{[(3S)-3-hydroxypyrrolidin-1-yl]methyl}[1]benzofuro[3,2-d]pyrimidin-4(3H)-one]
< 10 | < 10 | O=C(Nc1ccc(-c2nc3c(oc4ccc(Br)cc43)c(=O)[nH]2)c(Cl)c1)c1cccc(Cl)c1 [Compound 280, N-[4-(8-bromo-4-oxo-3,4-dihydro[1]benzofuro[3,2-d]pyrimidin-2-yl)-3-chlorophenyl]-3-chlorobenzamide]
< 10 | < 10 | O=c1[nH]c(CNC2CCc3ccccc32)nc2c1oc1ccc(Br)cc12 (centres unmarked) [Compound 241, 8-bromo-2-[(2,3-dihydro-1H-inden-1-ylamino)methyl][1]benzofuro[3,2-d]pyrimidin-4(3H)-one]
< 10 | < 10 | O=c1[nH]c(CN2CC[C@H](O)C2)nc2c1oc1ccc(NCc3ccccc3F)cc12 [Compound 462]
< 10 | < 10 | O=C(Nc1ccc(-c2nc3c(oc4ccc(Br)cc43)c(=O)[nH]2)c(Cl)c1)C1CCCC1 [Compound 251, N-[4-(8-bromo-4-oxo-3,4-dihydro[1]benzofuro[3,2-d]pyrimidin-2-yl)-3-chlorophenyl]cyclopentanecarboxamide]
< 10 | < 10 | COc1ccc(CNc2ccc3oc4c(=O)[nH]c(CN5CC[C@H](O)C5)nc4c3c2)cc1 [Compound 468, 2-{[(3S)-3-hydroxypyrrolidin-1-yl]methyl}-8-({[4-(methyloxy)phenyl]methyl}amino)[1]benzofuro[3,2-d]pyrimidin-4(3H)-one]
< 10 | < 10 | O=c1[nH]c(CC2CCNCC2)nc2c1oc1ccc(Br)cc12 [Compound 122, 8-bromo-2-(piperidin-4-ylmethyl)[1]benzofuro[3,2-d]pyrimidin-4(3H)-one]
< 10 | < 10 | CN1CCC(CNc2ccc(-c3nc4c(oc5ccc(Br)cc54)c(=O)[nH]3)c(Cl)c2)CC1 [Compound 163, 8-bromo-2-(2-chloro-4-{[(1-methylpiperidin-4-yl)methyl]amino}phenyl)[1]benzofuro[3,2-d]pyrimidin-4(3H)-one]
< 10 | < 10 | O=c1[nH]c(-c2c(Cl)cccc2Cl)nc2c1oc1ccc(Br)cc12 [Compound 36, 8-Bromo-2-(2,6-dichlorophenyl)[1]benzofuro[3,2-d]pyrimidin-4(3H)-one]
< 10 | < 10 | O=C(Nc1ccc(-c2nc3c(oc4ccc(Br)cc43)c(=O)[nH]2)cc1)c1ccncc1 [Compound 360, N-[4-(8-bromo-4-oxo-3,4-dihydro[1]benzofuro[3,2-d]pyrimidin-2-yl)phenyl]pyridine-4-carboxamide]
< 10 | < 10 | COCCN1CCN(Cc2nc3c(oc4ccc(Br)cc43)c(=O)[nH]2)CC1 [Compound 151, 8-bromo-2-({4-[2-(methyloxy)ethyl]piperazin-1-yl}methyl)[1]benzofuro[3,2-d]pyrimidin-4(3H)-one]
< 10 | < 10 | O=c1[nH]c(CN2CCC(N3CCOCC3)CC2)nc2c1oc1ccc(Br)cc12 [Compound 257, 8-bromo-2-[(4-morpholin-4-ylpiperidin-1-yl)methyl][1]benzofuro[3,2-d]pyrimidin-4(3H)-one]
< 10 | < 10 | COc1ccc2oc3c(=O)[nH]c(-c4cc([N+](=O)[O-])ccc4Cl)nc3c2c1 [Compound 145, 2-(2-chloro-5-nitrophenyl)-8-(methyloxy)[1]benzofuro[3,2-d]pyrimidin-4(3H)-one]
< 10 | < 10 | O=c1[nH]c(CNc2ccccc2F)nc2c1oc1ccc(Br)cc12 [Compound 19, 8-bromo-2-{[(2-fluorophenyl)amino]methyl}[1]benzofuro[3,2-d]pyrimidin-4(3H)-one]
< 10 | < 10 | CC(C)(NCc1nc2c(oc3ccc(Br)cc32)c(=O)[nH]1)C(N)=O [Compound 177, N-2-[(8-bromo-4-oxo-3,4-dihydro[1]benzofuro[3,2-d]pyrimidin-2-yl)methyl]-2-methylalaninamide]
< 10 | < 10 | NCCN1CCC(Cc2nc3c(oc4ccc(Br)cc43)c(=O)[nH]2)CC1 [Compound 168, 2-{[1-(2-aminoethyl)piperidin-4-yl]methyl}-8-bromo[1]benzofuro[3,2-d]pyrimidin-4(3H)-one]
< 10 | < 10 | CN(Cc1nc2c(oc3ccc(Br)cc32)c(=O)[nH]1)CC(O)CO (centres unmarked) [Compound 409, 8-bromo-2-{[(2,3-dihydroxypropyl)(methyl)amino]methyl}[1]benzofuro[3,2-d]pyrimidin-4(3H)-one]
< 10 | < 10 | CCN1CCN(Cc2nc3c(oc4ccc(Br)cc43)c(=O)[nH]2)CC1 [Compound 150, 8-bromo-2-[(4-ethylpiperazin-1-yl)methyl][1]benzofuro[3,2-d]pyrimidin-4(3H)-one]
< 10 | < 10 | CN1CCN(c2ccc(CNCc3nc4c(oc5ccc(Br)cc54)c(=O)[nH]3)cc2)CC1 [Compound 4, 8-bromo-2-[({[4-(4-methylpiperazin-1-yl)phenyl]methyl}amino)methyl][1]benzofuro[3,2-d]pyrimidin-4(3H)-one]
< 10 | < 10 | O=C(C1CCOC1)N1CCC(c2nc3c(oc4ccc(Br)cc43)c(=O)[nH]2)CC1 (centres unmarked) [Compound 233, 8-bromo-2-[1-(tetrahydrofuran-3-ylcarbonyl)piperidin-4-yl][1]benzofuro[3,2-d]pyrimidin-4(3H)-one]
